Source: ChEMBL document CHEMBL2331088, “An α-carbonic anhydrase from the thermophilic bacterium Sulphurihydrogenibium azorense is the fastest enzyme known for the CO2 hydration reaction” (Bioorg Med Chem, 2013)

Experiments:
[1] = Inhibition of Sulfurihydrogenibium azorense carbonic anhydrase preincubated for 15 mins by CO2 hydration stopped-flow assay
[2] = Inhibition of Sulfurihydrogenibium yellowstonense YO3AOP1 carbonic anhydrase preincubated for 15 mins by CO2 hydration stopped-flow assay
[3] = Inhibition of Helicobacter pylori alpha-carbonic anhydrase preincubated for 15 mins by CO2 hydration stopped-flow assay

SMILES	Ki [1] [µM]	Ki [2] [µM]	Ki [3] [µM]
CC(=O)Nc1nnc(S(N)(=O)=O)s1 [ACETAZOLAMIDE]	0.0009	0.004	–
O=C(O)O [BICARBONATE]	15700	33200	–
Br [BROMIDE]	940	49000	2410
S=C(S)S [CARBONOTRITHIOIC ACID]	39	60	380
CCN(CC)C(=S)S [DITIOCARB]	3.1	4	5
F [FLUORIDE ION]	980	417000	4080
Cl [HYDROCHLORIC ACID]	850	8300	2700
S [HYDROGEN SULFIDE]	380	580	–
I [IODIDE]	870	860	6050
N=C=[Se] [ISOSELENOCYANATE]	490	70	730
N=C=S [ISOTHIOCYANATE]	580	710	4100
NS(=O)(=O)O [SULFAMATE]	4.8	42	80
O=S(=O)(O)O [SULFURIC ACID]	10000	820	820
O=S(O)O [SULFUROUS ACID]	950	21100	990
